Laboratory results: the NIST ThermoML archive (doi:10.1021/je034041x)
± gives the expanded uncertainty stated by the source.

What was measured:
[1] = xn = mol fraction of the nth substance listed; conditions: Liquid
[2] = Liquid

O=C=O [carbon dioxide] + O
[1]
Conditions | viscosity [mPa·s]
273.9 K, 670 kPa, x1 = 0.00869 | 1.855 ± 0.12
274.2 K, 4630 kPa, x1 = 0.00295 | 2.827 ± 0.18
274.3 K, 670 kPa, x1 = 0.00857 | 1.851 ± 0.12
274.5 K, 670 kPa, x1 = 0.0085 | 1.839 ± 0.12
274.6 K, 4610 kPa, x1 = 0.00294 | 2.951 ± 0.19
274.7 K, 670 kPa, x1 = 0.00844 | 1.818 ± 0.12
275 K, 670 kPa, x1 = 0.00834 | 1.794 ± 0.12
275.1 K, 670 kPa, x1 = 0.00831 | 1.807 ± 0.12
275.3 K, 670 kPa, x1 = 0.00824 | 1.771 ± 0.12
275.6 K, 690 kPa, x1 = 0.00815 | 1.739 ± 0.11
275.9 K, 690 kPa, x1 = 0.00805 | 1.705 ± 0.11
276 K, 690 kPa, x1 = 0.00802 | 1.694 ± 0.11
276.1 K, 4780 kPa, x1 = 0.00291 | 2.225 ± 0.14
276.3 K, 4790 kPa, x1 = 0.00291 | 2.179 ± 0.14
276.4 K, 690 kPa, x1 = 0.00789 | 1.647 ± 0.11
276.5 K, 4810 kPa, x1 = 0.0029 | 2.171 ± 0.14
276.7 K, 690 kPa, x1 = 0.00779 | 1.605 ± 0.11
277.1 K, 690 kPa, x1 = 0.00766 | 1.604 ± 0.1
277.5 K, 690 kPa, x1 = 0.00754 | 1.57 ± 0.1
277.7 K, 4850 kPa, x1 = 0.00287 | 2.078 ± 0.14
278.6 K, 4890 kPa, x1 = 0.00285 | 1.948 ± 0.13
279.1 K, 710 kPa, x1 = 0.00702 | 1.438 ± 0.094
279.3 K, 710 kPa, x1 = 0.00695 | 1.44 ± 0.094
279.6 K, 4910 kPa, x1 = 0.00283 | 1.848 ± 0.12
281 K, 710 kPa, x1 = 0.00641 | 1.367 ± 0.089
281 K, 4910 kPa, x1 = 0.0028 | 1.728 ± 0.11
281.8 K, 769 kPa, x1 = 0.00615 | 1.225 ± 0.08
282.1 K, 729 kPa, x1 = 0.00605 | 1.267 ± 0.082
282.1 K, 4920 kPa, x1 = 0.00277 | 1.539 ± 0.1
282.2 K, 4870 kPa, x1 = 0.00277 | 1.576 ± 0.1

O [water]
[2]
Conditions | viscosity [mPa·s]
273.9 K, 670 kPa | 1.833 ± 0.12
274.2 K, 4630 kPa | 1.802 ± 0.12
274.3 K, 670 kPa | 1.827 ± 0.12
274.5 K, 670 kPa | 1.808 ± 0.12
274.6 K, 4610 kPa | 1.804 ± 0.12
274.7 K, 670 kPa | 1.774 ± 0.12
275 K, 670 kPa | 1.737 ± 0.12
275.1 K, 670 kPa | 1.725 ± 0.11
275.3 K, 670 kPa | 1.705 ± 0.11
275.6 K, 690 kPa | 1.683 ± 0.11
275.9 K, 101.3 kPa | 1.64 ± 0.11
275.9 K, 690 kPa | 1.66 ± 0.11
276 K, 690 kPa | 1.652 ± 0.11
276.1 K, 101.3 kPa | 1.637 ± 0.11
276.1 K, 4780 kPa | 1.67 ± 0.11
276.3 K, 101.3 kPa | 1.631 ± 0.11
276.3 K, 4790 kPa | 1.652 ± 0.11
276.4 K, 690 kPa | 1.622 ± 0.11
276.5 K, 4810 kPa | 1.634 ± 0.11
276.7 K, 101.3 kPa | 1.594 ± 0.11
276.7 K, 690 kPa | 1.613 ± 0.11
276.9 K, 101.3 kPa | 1.588 ± 0.1
277.1 K, 690 kPa | 1.589 ± 0.1
277.2 K, 101.3 kPa | 1.555 ± 0.1
277.5 K, 690 kPa | 1.558 ± 0.1
277.7 K, 4850 kPa | 1.459 ± 0.096
278.3 K, 101.3 kPa | 1.491 ± 0.098
278.6 K, 4890 kPa | 1.459 ± 0.095
279.1 K, 710 kPa | 1.442 ± 0.094
279.3 K, 101.3 kPa | 1.437 ± 0.094
279.3 K, 710 kPa | 1.428 ± 0.094
279.6 K, 4910 kPa | 1.425 ± 0.093
279.9 K, 101.3 kPa | 1.405 ± 0.092
281 K, 710 kPa | 1.357 ± 0.089
281 K, 4910 kPa | 1.375 ± 0.09
281.8 K, 769 kPa | 1.329 ± 0.087
282.1 K, 729 kPa | 1.319 ± 0.086
282.1 K, 4920 kPa | 1.338 ± 0.087
282.2 K, 101.3 kPa | 1.286 ± 0.084
282.2 K, 4870 kPa | 1.335 ± 0.087
